Measurements taken from patent US5863950A, “HIV protease inhibitors” (Agouron Pharmaceuticals, Inc., priority 1994, dated 1999).
Where “and” joins values, the source holds several entries; their conditions need not be identical. Equal entries are not always repeated.

These compounds were tested against T1, HIV-1 protease (Human immunodeficiency virus type 1 group M subtype B, UniProt P04585) (assay: biochemical). Conditions: not given.
T1 construct: purified HIV-1 protease
Format: biochemical
Protocol: 1. Proteolytic activity of purified HIV-1 protease was routinely measured using the chromogenic assay developed by Richards et al. (J. Biol. Chem. 265: 7733 (1990)). Synthetic peptide His-Lys-Ala-Arg-Val-Leu-Phe (pNO2)-Glu-Ala-Nle-Ser-NH2 (American Peptide Company) was used as the substrate.
2. The assay was carried out in 0.5M NaCl, 50 mM MES pH 5.6, 2% DMSO (dimethylsulfoxide) at 37° C. Cleavage of the scissile bond between leucine and paranitro-phenylalanine (Phe(pNO2)) was assayed by spectrophotometric monitoring of the decrease in absorbance at 305 nm. Initial velocity was determined as the rate of decline of absorbance during the first 100 seconds of reaction.
3. […] Between 15-25 concentrations of inhibitor were added and velocity of reaction was measured at each of the concentrations, as described above.
4. Inhibition constants were calculated using the method of Jackson et al. (Adv. in Enzyme Regulation 22: 187 (1984)).

IC50	Ki	Compound
0.88 µM	0.48 µM	CC(C)(C)NC(=O)c1c(CCC(O)Cc2ccc3ccccc3c2C(=O)NC(C)(C)C)ccc2ccccc12 (single isomer, unassigned) [Example 49]

Same assay, conditions: 0.5M NaCl, 50 mM MES pH 5.6, 2% DMSO, 37° C., 200 μM substrate

Compound	IC50	Ki
CC(C)(C)NC(=O)c1ccccc1CC(O)CSc1ccc(NC(=O)c2ccncc2)cc1C(=O)NC(C)(C)C (centres unmarked) [Example 45]	60 µM	
COC(CSc1ccccc1C(=O)NC(C)(C)C)Cc1ccccc1C(=O)NC(C)(C)C (centres unmarked) [Example 41]	> 500 µM	
CC(C)(C)NC(=O)c1ccccc1C#CC(O)Cc1ccccc1C(=O)NC(C)(C)C (centres unmarked) [Example 26]	> 200 µM	
CC(C)(C)NC(=O)c1cc(C(C)(C)C)ccc1CCC(O)Cc1ccccc1C(=O)N(CCO)C(C)(C)C (centres unmarked) [Example 35]	1.19 µM	0.84 µM
CC(C)(C)NC(=O)c1cc(C(C)(C)C)ccc1CCC(O)Cc1ccc2ccccc2c1C(=O)NC(C)(C)C (centres unmarked) [Example 7]	1.02 µM	1.01 µM
CC(C)(C)NC(=O)[C@@H]1C[C@@H]2CCCC[C@@H]2CN1CC(O)CCc1ccccc1C(=O)N(CCO)C(C)(C)C (single isomer, unassigned) [Example 29]	55 µM	
CC(C)(C)NC(=O)c1cnccc1CC(O)CCc1ccc2ccccc2c1C(=O)NC(C)(C)C (centres unmarked) [Example 11]	18 µM	
CC(C)N1CCC(CC(O)CCc2ccc3ccccc3c2C(=O)NC(C)(C)C)=C(C(=O)NC(C)(C)C)C1 (centres unmarked) [Example 48]	70 µM	
CC(C)(C)NC(=O)c1cc(C(C)(C)C)ccc1CC[C@@H](O)Cc1ccc2ccccc2c1C(=O)NC(C)(C)C [Example 8]	~20 µM	
CC(C)(C)NC(=O)c1ccccc1SCC(O)Cc1ccccc1C(=O)N(CCO)C(C)(C)C (centres unmarked) [Example 36]	25 µM	
CC(C)(C)NC(=O)c1cc(C(C)(C)C)ccc1CCC(O)Cc1ccc(C(C)(C)C)cc1C(=O)NC(C)(C)C (centres unmarked) [Example 10]	15 µM	
CC(C)(C)NC(=O)c1ccccc1CCC(O)Cc1ccccc1C(=O)NC(C)(C)C (centres unmarked) [Example 25]	18 µM	
CC(C)(C)NC(=O)c1ccccc1NCC(O)Cc1ccc2ccccc2c1C(=O)NC(C)(C)C (centres unmarked) [Example 50]	120 µM	
CN(C)CCNC(=O)c1ccccc1SCC(O)Cc1ccccc1C(=O)NC(C)(C)C (centres unmarked) [Example 39]	> 500 µM	
CCNC(=O)c1ccccc1CC(O)CSc1ccccc1C(=O)NCCN(C)C (centres unmarked) [Example 38]	> 500 µM	
Cc1ccc(CCC(O)Cc2ccccc2C(=O)N(CCO)C2(C)CCCC2)c(C(=O)N(CCO)C(C)(C)C)c1 (centres unmarked) [Example 4]	0.72 µM	0.42 µM
CC(C)(C)NC(=O)c1ccccc1CC(O)CSc1ccccc1C(=O)NC(C)(C)C (centres unmarked) [Example 23]	75 to 100 µM	
CC(C)(C)NC(=O)c1c(CCC(O)CCc2ccc3ccccc3c2C(=O)NC(C)(C)C)ccc2ccccc12 [Example 32]	7 µM	
CC(C)(C)N(CCO)C(=O)c1c(CCC(O)Cc2ccc3ccccc3c2C(=O)N(CCO)C(C)(C)C)ccc2ccccc12 (centres unmarked) [Example 6]	30 µM	
CC(C)(C)NC(=O)[C@@H]1C[C@@H]2CCCC[C@@H]2CN1CC(O)CCc1ccccc1C(=O)N(CCO)C(C)(C)C (single isomer, unassigned) [Example 30]	38 µM	
CN(C)CCNC(=O)c1ccccc1CC(O)CSc1ccccc1C(=O)NCCN(C)C (centres unmarked) [Example 37]	> 500 µM	
CC(C)(C)NC(=O)c1ccccc1CC(O)CSc1ccc2ccccc2c1C(=O)NC(C)(C)C (centres unmarked) [Example 47]	50 µM	
CN(C)CC(C)(C)CNC(=O)c1ccccc1SCC(O)Cc1ccccc1C(=O)NC(C)(C)C (centres unmarked) [Example 40]	> 500 µM	
CC(C)(C)NC(=O)c1ccccc1SCC(O)c1ccccc1C(=O)NC(C)(C)C (centres unmarked) [Example 17]	> 200 µM	
CC(C)(C)NC(=O)c1c(CC(O)CCc2ccccc2C(=O)N(CCO)C(C)(C)C)ccc2ccccc12 (centres unmarked) [Example 3]	2.38 µM	1.31 µM
CC(C)(C)N(CCO)C(=O)c1ccccc1CCC(O)CCc1ccccc1C(=O)N(CCO)C(C)(C)C [Example 33]	6 µM	
CC(C)(C)NC(=O)c1c(CCC(O)Cc2ccc3ccccc3c2C(=O)N(CCO)C(C)(C)C)ccc2ccccc12 (centres unmarked) [Example 14]	5.6 µM	5.4 µM
CC(C)(C)NC(=O)c1ccccc1CC(O)CSc1ccccc1C(=O)N1CCOCC1 (centres unmarked) [Example 42]	150 to 200 µM	
CC(C)(C)NC(=O)c1ccccc1SCC(O)CN1CCCCC1C(=O)NC(C)(C)C (centres unmarked) [Example 22]	60 µM	

The next lines start with the values.

IC50	Ki	Compound
120 µM		CC(C)(C)NC(=O)c1ccccc1NCC(O)Cc1ccc2ccccc2c1C(=O)NC(C)(C)C (centres unmarked) [Example 51]
0.23 µM	0.075 µM	CCc1ccc(CC(O)CCc2ccccc2C(=O)N(CCOCc2ccccc2)C(C)(C)c2ccccc2)c(C(=O)N(CCO)C(C)(C)c2ccccc2)c1 (centres unmarked) [Example 88]
9 µM		CC(C)(C)N(CCO)C(=O)c1ccccc1CCC(=O)C(F)c1ccccc1C(=O)N(CCO)C(C)(C)c1ccccc1 (centres unmarked) [Example 70]
8 µM		CC(C)(C)N(CCCO)C(=O)c1ccccc1CCC(O)Cc1ccccc1C(=O)N(CCOCCN1CCOCC1)C(C)(C)c1ccccc1 (centres unmarked) [Example 75]
3.5 µM	3.2 µM	CC(C)(C)N(CCO)C(=O)c1ccccc1CCC(O)C(F)(F)c1ccccc1C(=O)N(CCO)C(C)(C)c1ccccc1 (centres unmarked) [Example 79]
0.2 µM	0.176 µM	Cc1cc(CC(O)CCc2ccccc2C(=O)N(CCO)C(C)(C)C)c(C(=O)N(CCO)C(C)(C)c2ccccc2)cc1C (centres unmarked) [Example 90]
64 µM	56 µM	CC(C)(C)NC(=O)c1ccccc1CC(O)C(O)Cc1ccccc1C(=O)NC(C)(C)C (centres unmarked) [Example 56]
0.448 µM	0.379 µM	Cc1ccc(CC(O)CCc2ccccc2C(=O)N(Cc2ccccc2)C(C)C)c(C(=O)N(CCO)C(C)(C)c2ccccc2)c1 (centres unmarked) [Example 86]
4.1 µM	2.7 µM	CC(C)(C)NC(=O)c1cc2ccccc2cc1CCC(O)Cc1ccccc1C(=O)N(CCO)C(C)(C)C (centres unmarked) [Example 60]
36 µM	18.4 µM	CC(C)(C)N(CCO)C(=O)c1ccccc1CC(O)CSc1ccccc1C(=O)N(CCO)C(C)(C)C (centres unmarked) [Example 85]
9.6 µM	7.7 µM	CC(C)(C)N(CCO)C(=O)c1ccccc1CC(O)C(O)Cc1ccccc1C(=O)N(CCO)C(C)(C)C (centres unmarked) [Example 58]
6.3 µM		CN(C(=O)c1ccccc1CCC(O)Cc1ccccc1C(=O)N(C)C(C)(C)C)C(C)(C)C (centres unmarked) [Example 55]
1.33 µM	1.27 µM	CC(C)(C)N(CCO)C(=O)c1ccccc1CCC(O)Cc1ccccc1C(=O)N(CCO)C(C)(C)Cc1ccccc1 (centres unmarked) [Example 61]
25 µM		CC(C)(C)NC(=O)c1ccccc1SCC(O)Cc1ccc2ccccc2c1C(=O)NC(C)(C)C (centres unmarked) [Example 52]
11.9 µM	5.8 µM	CC(C)(C)N(CCO)C(=O)c1ccccc1CCC(O)Cc1ccccc1C(=O)N(c1ccccc1)C(C)(C)C (centres unmarked) [Example 68]
1.3 µM	0.879 µM	CC(C)(C)N(CCO)C(=O)c1ccccc1CCC(O)C(F)c1ccccc1C(=O)N(CCO)C(C)(C)c1ccccc1 (centres unmarked) [Example 71]
8.3 µM	7.9 µM	CC(C)(C)N(CCO)C(=O)c1ccccc1CCC(O)Cc1ccccc1C(=O)N(Cc1ccccc1)C(C)(C)C (centres unmarked) [Example 64]

Same assay, conditions: at 10 (μM)

percent (inhibition)	Compound
40%	CC(C)(C)NC(=O)c1ccccc1CCC(O)Cc1ccccc1C(=O)N(Cc1ccccc1)C(C)(C)C (centres unmarked) [Example 13]
40%	CC(C)(C)NC(=O)c1c(CCC(O)Cc2ccccc2C(=O)N(c2ccccc2)C(C)(C)C)ccc2ccccc12 (centres unmarked) [Example 69]
40%	CC(C)(C)NC(=O)c1c(CCC(O)Cc2ccccc2C(=O)N(Cc2nc3ccccc3[nH]2)C(C)(C)C)ccc2ccccc12 (centres unmarked) [Example 67]

Same assay, conditions: at 50 (μM)

percent (inhibition)	Compound
20%	CC(C)(C)NC(=O)c1c(CCC(O)Cc2ccccc2-c2nccc3ccccc23)ccc2ccccc12 (centres unmarked) [Example 16]

Same assay, conditions: at 100 (μM)

percent (inhibition)	Compound
20% and 35%	CC(C)(C)NC(=O)c1ccccc1CCC(O)CN1CCCCC1C(=O)NC(C)(C)C (centres unmarked) [Example 31]
20%	CN(C(=O)c1c(CC(O)CCc2ccc3ccccc3c2C(=O)NC(C)(C)C)ccc2c1CNCC2)C(C)(C)C (centres unmarked) [Example 59]
40%	CC(O)(CCc1ccccc1C(=O)NC(C)(C)C)Cc1ccccc1C(=O)NC(C)(C)C (centres unmarked) [Example 34]

Same assay, conditions: at 200 (μM)

Compound	percent (inhibition)
CC(C)(C)NC(=O)c1ccccc1CC(O)CSc1ccc(N)cc1C(=O)NC(C)(C)C (centres unmarked) [Example 44]	20%
CC(C)(C)NC(=O)c1ccccc1C(O)CSc1ccccc1NC(=O)C(C)(C)C (centres unmarked) [Example 21]	10%
CC(C)(C)NC(=O)c1ccccc1/C=C\C(O)Cc1ccccc1C(=O)NC(C)(C)C (centres unmarked) [Example 27]	40%
CC(C)(C)NC(=O)c1ccccc1CC(O)CSc1ccc([N+](=O)[O-])cc1C(=O)NC(C)(C)C (centres unmarked) [Example 43]	20%
CC(C)(C)NC(=O)c1ccccc1/C=C/C(O)Cc1ccccc1C(=O)NC(C)(C)C (centres unmarked) [Example 28]	40%

Continued, values first:

percent (inhibition)	Compound
40%	CC(=O)N1CCc2ccc(CC(O)CCc3ccc4ccccc4c3C(=O)NC(C)(C)C)c(C(=O)N(C)C(C)(C)C)c2C1 (centres unmarked) [Example 63]
93%	CC(C)(C)NC(=O)c1ccccc1CCC(O)C(O)CCc1ccccc1C(=O)NC(C)(C)C (centres unmarked) [Example 57]

Same assay, conditions: substrate, standard conditions; read-out: Michaelis constant (Km)

Compound	Km
His-Lys-Ala-Arg-Val-Leu-Phe (pNO2)-Glu-Ala-Nle-Ser-NH2 [reference compound]	52 ± 16 µM
